Source: ChEMBL document CHEMBL1133412, “Rational design, synthesis and structure-activity relationships of antitumor (E)-2-benzylidene-1-tetralones and (E)-2-benzylidene-1-indanones” (Bioorg Med Chem Lett, 2000)

What was measured:
Assay type in all cases: functional, cell-based
[1] = tested on: L1210; assay: Cytotoxicity evaluated against L1210 tumor cell lines; Significant activity; conditions: Mus musculus
[2] = tested on: MOLT-4; assay: Cytotoxicity was evaluated against Molt-4 tumor cell lines; conditions: Homo sapiens
[3] = tested on: NIH3T3; assay: Cytotoxicity evaluated against NIH3T3 tumor cell lines; Significant activity; conditions: Mus musculus
[4] = tested on: K562; assay: Cytotoxicity evaluated against K562 tumor cell lines; Significant activity; conditions: Homo sapiens
[5] = tested on: B16; assay: Cytotoxicity was evaluated against B16 tumor cell lines; Significant activity; conditions: Mus musculus
[6] = tested on: NCI-H292; assay: Cytotoxicity evaluated against H292 tumor cell lines; Significant activity; conditions: Homo sapiens
[7] = tested on: NCI-H596; assay: Cytotoxicity evaluated against H596 tumor cell lines; Significant activity; conditions: Homo sapiens
[8] = tested on: CCRF-CEM; assay: Cytotoxicity evaluated against CEM tumor cell lines; Significant activity; conditions: Homo sapiens
[9] = tested on: MCF7; assay: Cytotoxicity evaluated against MCF-7 tumor cell lines; Significant activity; conditions: Homo sapiens
[10] = tested on: Jurkat; assay: In vitro test for antitumor activity against human Jurkat cell line using a formazan dye (MTT) conversion assay.
[11] = tested on: HL-60; assay: Cytotoxicity evaluated against HL-60 tumor cell lines; Significant activity; conditions: Homo sapiens
[12] = tested on: A549; assay: Cytotoxicity evaluated against A549 tumor cell lines; significant activity; conditions: Homo sapiens
[13] = tested on: WIL2; assay: Cytotoxicity evaluated against WIL2 tumor cell lines; Significant activity; conditions: Homo sapiens
[14] = tested on: WI-38; assay: Cytotoxicity evaluated against WI38 tumor cell lines; Significant activity; conditions: Homo sapiens

Compound	Cytotoxicity [1]	Cytotoxicity [2]	Cytotoxicity [3]	Cytotoxicity [4]	Cytotoxicity [5]	Cytotoxicity [6]	Cytotoxicity [7]	Cytotoxicity [8]	Cytotoxicity [9]	IC50 [10]	Cytotoxicity [11]	Cytotoxicity [12]	Cytotoxicity [13]	Cytotoxicity [14]
COc1cc2c(cc1OC)C(=O)/C(=C/c1cc([N+](=O)[O-])cc([N+](=O)[O-])c1)CC2	Significant activity	Significant activity	Significant activity	Significant activity	Significant activity	Significant activity	Significant activity	Significant activity	Significant activity	2 µM	Significant activity	Significant activity	Significant activity	Significant activity
COc1cc2c(cc1OC)C(=O)/C(=C/c1cc(Cl)cc(Cl)c1)CC2	Significant activity	Significant activity	Significant activity	Significant activity	Significant activity	Significant activity	Significant activity	Significant activity	Significant activity	7 µM	Significant activity	Significant activity	Significant activity	Significant activity
COc1cc2c(cc1OC)C(=O)/C(=C/c1cccc(C)c1)CC2	Significant activity	Significant activity	Significant activity	Significant activity	Significant activity	Significant activity	Significant activity	Significant activity	Significant activity	17 µM	Significant activity	Significant activity	Significant activity	Significant activity
COc1cc2c(cc1OC)C(=O)/C(=C/c1cccc(Cl)c1)CC2	Significant activity	Significant activity	Significant activity	Significant activity	Significant activity	Significant activity	Significant activity	Significant activity	Significant activity	9 µM	Significant activity	Significant activity	Significant activity	Significant activity
COc1cc2c(cc1OC)C(=O)/C(=C/c1cc(C)c(OC(C)=O)c(C)c1)C2	Significant activity	Significant activity	Significant activity	Significant activity	Significant activity	Significant activity	Significant activity	Significant activity	Significant activity	0.4 µM	Significant activity	Significant activity	Significant activity	Significant activity
COc1cc2c(cc1OC)C(=O)/C(=C/c1cc(C)c(N)c(C)c1)C2	Significant activity	Significant activity	Significant activity	Significant activity	Significant activity	Significant activity	Significant activity	Significant activity	Significant activity	0.055 µM	Significant activity	Significant activity	Significant activity	Significant activity
COc1cc2c(cc1OC)C(=O)/C(=C/c1ccc(O)cc1)CC2	Significant activity	Significant activity	Significant activity	Significant activity	Significant activity	Significant activity	Significant activity	Significant activity	Significant activity	19 µM	Significant activity	Significant activity	Significant activity	Significant activity
COc1cc2c(cc1OC)C(=O)/C(=C/c1ccc(O)c(C)c1)C2	Significant activity	Significant activity	Significant activity	Significant activity	Significant activity	Significant activity	Significant activity	Significant activity	Significant activity	1.16 µM	Significant activity	Significant activity	Significant activity	Significant activity
COc1cc(/C=C2\CCc3cc(OC)c(OC)cc3C2=O)cc(OC)c1	Significant activity	Significant activity	Significant activity	Significant activity	Significant activity	Significant activity	Significant activity	Significant activity	Significant activity	5 µM	Significant activity	Significant activity	Significant activity	Significant activity
COc1cc2c(cc1OC)C(=O)/C(=C/c1cc(OC)c(OC)c(OC)c1)CC2	Significant activity	Significant activity	Significant activity	Significant activity	Significant activity	Significant activity	Significant activity	Significant activity	Significant activity	> 50 µM	Significant activity	Significant activity	Significant activity	Significant activity
COc1cc2c(cc1OC)C(=O)/C(=C/c1cccc(Cl)c1)C2	Significant activity	Significant activity	Significant activity	Significant activity	Significant activity	Significant activity	Significant activity	Significant activity	Significant activity	8 µM	Significant activity	Significant activity	Significant activity	Significant activity
COc1cc2c(cc1OC)C(=O)/C(=C/c1cc(C)c(OCC(=O)O)c(C)c1)C2	Significant activity	Significant activity	Significant activity	Significant activity	Significant activity	Significant activity	Significant activity	Significant activity	Significant activity	6.3 µM	Significant activity	Significant activity	Significant activity	Significant activity
COc1cc2c(cc1OC)C(=O)/C(=C/c1cc(C)cc(C)c1)CC2	Significant activity	Significant activity	Significant activity	Significant activity	Significant activity	Significant activity	Significant activity	Significant activity	Significant activity	4 µM	Significant activity	Significant activity	Significant activity	Significant activity
COc1cc2c(cc1OC)C(=O)/C(=C/c1cc(F)cc(F)c1)C2	Significant activity	Significant activity	Significant activity	Significant activity	Significant activity	Significant activity	Significant activity	Significant activity	Significant activity	19 µM	Significant activity	Significant activity	Significant activity	Significant activity
